In brackets after ≈: the same amount, converted by molar mass.
Columns and labels:
Assay in all cases: in vitro antibacterial evaluation, MIC by broth dilution
Format in all cases: cell-based
Enterococcus sp. = details: broth dilution, 18 hours at 35° C.
How it was run: (§1)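 MIC = lowest antibiotic concentration preventing visible growth; inoculum 5×10^5 CFU/mL; drug range 64-0.06 μg/mL; Muller-Hinton II […]; NCCLS M7-A2 guidance.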

Staphylococcus sp. = details: broth dilution, 18 hours at 35° C.; for MIC Staphylococcus aureus (GC 1131): strain GC 1131
How it was run: as §1

Streptococcus sp. = details: broth dilution, 18 hours at 35° C.
How it was run: as §1

Escherichia coli = details: 18 hours at 35° C.

- MIC Enterococcus avium (GC 4558) (Enterococcus sp.): 4 µg/mL (≈ 2.74 µM)
- MIC Enterococcus faecalis (ATCC 29212) (Enterococcus sp.): 16 µg/mL (≈ 11 µM)
- MIC Enterococcus faecalis (GC 2242) (Enterococcus sp.): 8 µg/mL (≈ 5.49 µM)
- MIC Enterococcus faecalis (GC 2691) (Enterococcus sp.): 8 µg/mL (≈ 5.49 µM)
- MIC Enterococcus faecalis (GC 3059) (Enterococcus sp.): 8 µg/mL (≈ 5.49 µM)
- MIC Enterococcus faecalis (GC 4552) (Enterococcus sp.): 16 µg/mL (≈ 11 µM)
- MIC Enterococcus faecalis (GC 4553) (Enterococcus sp.): 8 µg/mL (≈ 5.49 µM)
- MIC Enterococcus faecalis (GC 4554) (Enterococcus sp.): 16 µg/mL (≈ 11 µM)
- MIC Enterococcus faecalis (GC 6189) (Enterococcus sp.): 8 µg/mL (≈ 5.49 µM)
- MIC Enterococcus faecium (GC 2243) (Enterococcus sp.): 8 µg/mL (≈ 5.49 µM)
- MIC Enterococcus faecium (GC 4556) (Enterococcus sp.): 8 µg/mL (≈ 5.49 µM)
- MIC Enterococcus faecium (GC 4557) (Enterococcus sp.): 4 µg/mL (≈ 2.74 µM)
- MIC Enterococcus faecalis (ATCC 29212) (Enterococcus sp.; inoculum 5×10^5 CFU/mL, strain ATCC 29212): 16 µg/mL (≈ 11 µM)
- MIC Enterococcus faecalis (GC 2242) (Enterococcus sp.; inoculum 5×10^5 CFU/mL, strain GC 2242): 8 µg/mL (≈ 5.49 µM)
- MIC Enterococcus faecium (GC 2243) (Enterococcus sp.; inoculum 5×10^5 CFU/mL, strain GC 2243): 8 µg/mL (≈ 5.49 µM)
- MIC Enterococcus faecalis (GC 2691) (Enterococcus sp.; inoculum 5×10^5 CFU/mL, strain GC 2691): 8 µg/mL (≈ 5.49 µM)
- MIC Enterococcus faecalis (GC 3059) (Enterococcus sp.; inoculum 5×10^5 CFU/mL, strain GC 3059): 8 µg/mL (≈ 5.49 µM)
- MIC Enterococcus faecalis (GC 4552) (Enterococcus sp.; inoculum 5×10^5 CFU/mL, strain GC 4552): 16 µg/mL (≈ 11 µM)
- MIC Enterococcus faecalis (GC 4553) (Enterococcus sp.; inoculum 5×10^5 CFU/mL, strain GC 4553): 8 µg/mL (≈ 5.49 µM)
- MIC Enterococcus faecalis (GC 4554) (Enterococcus sp.; inoculum 5×10^5 CFU/mL, strain GC 4554): 16 µg/mL (≈ 11 µM)
- MIC Enterococcus faecium (GC 4556) (Enterococcus sp.; inoculum 5×10^5 CFU/mL, strain GC 4556): 8 µg/mL (≈ 5.49 µM)
- MIC Enterococcus faecium (GC 4557) (Enterococcus sp.; inoculum 5×10^5 CFU/mL, strain GC 4557): 4 µg/mL (≈ 2.74 µM)
- MIC Enterococcus avium (GC 4558) (Enterococcus sp.; inoculum 5×10^5 CFU/mL, strain GC 4558): 4 µg/mL (≈ 2.74 µM)
- MIC Enterococcus faecalis (GC 6189) (Enterococcus sp.; inoculum 5×10^5 CFU/mL, strain GC 6189): 8 µg/mL (≈ 5.49 µM)
- MIC Staphylococcus aureus (GC 1131) (Staphylococcus sp.; inoculum 5×10^5 CFU/mL): 8 µg/mL (≈ 5.49 µM)
- MIC Staphylococcus aureus (ATCC 29213) (Staphylococcus sp.; strain ATCC 29213): 4 µg/mL (≈ 2.74 µM)
- MIC Staphylococcus aureus (GC 1131) (Staphylococcus sp.): 8 µg/mL (≈ 5.49 µM)
- MIC Staphylococcus aureus (GC 3051) (Staphylococcus sp.; strain GC 3051): 8 µg/mL (≈ 5.49 µM)
- MIC Staphylococcus aureus (GC 3053) (Staphylococcus sp.; strain GC 3053): 8 µg/mL (≈ 5.49 µM)
- MIC Staphylococcus aureus (GC 4541) (Staphylococcus sp.; strain GC 4541): 4 µg/mL (≈ 2.74 µM)
- MIC Staphylococcus aureus (GC 4542) (Staphylococcus sp.; strain GC 4542): 4 µg/mL (≈ 2.74 µM)
- MIC Staphylococcus aureus-SMITH (GC 4543) (Staphylococcus sp.; strain GC 4543): 4 µg/mL (≈ 2.74 µM)
- MIC Staphylococcus aureus (GC 4544) (Staphylococcus sp.; strain GC 4544): 8 µg/mL (≈ 5.49 µM)
- MIC Staphylococcus aureus (GC 4545) (Staphylococcus sp.; strain GC 4545): 4 µg/mL (≈ 2.74 µM)
- MIC Coagulase Negative Staphylococcus (GC 4547) (Staphylococcus sp.; strain GC 4547): 8 µg/mL (≈ 5.49 µM)
- MIC Coagulase Negative Staphylococcus (GC 4548) (Staphylococcus sp.; strain GC 4548): 4 µg/mL (≈ 2.74 µM)
- MIC Coagulase Negative Staphylococcus (GC 4549) (Staphylococcus sp.; strain GC 4549): 4 µg/mL (≈ 2.74 µM)
- MIC Coagulase Negative Staphylococcus (GC 4551) (Staphylococcus sp.; strain GC 4551): 4 µg/mL (≈ 2.74 µM)
- MIC Coagulase Negative Staphylococcus (GC 6257) (Staphylococcus sp.; strain GC 6257): 4 µg/mL (≈ 2.74 µM)
- MIC Streptococcus agalactiae (GC 4564) (Streptococcus sp.): 2 µg/mL (≈ 1.37 µM)
- MIC Streptococcus pneumoniae (ATCC 6301) (Streptococcus sp.): 1 µg/mL (≈ 0.686 µM)
- MIC Streptococcus pneumoniae (GC 1894) (Streptococcus sp.): 0.25 µg/mL (≈ 0.172 µM)
- MIC Streptococcus pneumoniae (GC 4565) (Streptococcus sp.): 2 µg/mL (≈ 1.37 µM)
- MIC Streptococcus pyogenes (GC 4563) (Streptococcus sp.): 2 µg/mL (≈ 1.37 µM)
- MIC Streptococcus pneumoniae (ATCC 6301) (Streptococcus sp.; inoculum 5×10^5 CFU/mL, strain ATCC 6301): 1 µg/mL (≈ 0.686 µM)
- MIC Streptococcus pneumoniae (GC 1894) (Streptococcus sp.; inoculum 5×10^5 CFU/mL, strain GC 1894): 0.25 µg/mL (≈ 0.172 µM)
- MIC Streptococcus pyogenes (GC 4563) (Streptococcus sp.; inoculum 5×10^5 CFU/mL, strain GC 4563): 2 µg/mL (≈ 1.37 µM)
- MIC Streptococcus agalactiae (GC 4564) (Streptococcus sp.; inoculum 5×10^5 CFU/mL, strain GC 4564): 2 µg/mL (≈ 1.37 µM)
- MIC Streptococcus pneumoniae (GC 4565) (Streptococcus sp.; inoculum 5×10^5 CFU/mL, strain GC 4565): 2 µg/mL (≈ 1.37 µM)
- MIC Escherichia coli (ATCC 25922) (Escherichia coli): >64 µg/mL
- MIC Escherichia coli (GC 4559) (Escherichia coli): 64 µg/mL (≈ 43.9 µM)
- MIC Escherichia coli (GC 4560) (Escherichia coli): 8 µg/mL (≈ 5.49 µM)
Structure (SMILES): CC(c1ccccc1)C1NC(=O)CNC(=O)C(CO)NC(=O)C(CC2CNC(=N)N2C2OC(CO)C(O)C(O)C2O)NC(=O)C(CC2CNC(=N)N2)NC(=O)C(Cc2ccc(OC3OC(CO)C(OC4OC5COC(c6ccc(OCc7ccccc7)cc6)OC5C(O)C4O)C(O)C3O)cc2)NC1=O (centres unmarked) [Example 191]
- MIC Staphylococcus haemolyticus (GC 4546) (Staphylococcus sp.; strain GC 4546): 4 µg/mL (≈ 2.74 µM)
